Where two headings read alike, the source gives them in different places.
Columns and labels:
[1] = test system: splenocyte lymphocytes stimulated by Con A; assay: Lymphocyte blastogenesis of normal mice stimulated by Con A (3H-TdR); assay type: in vivo, NIH mice; conditions: 0.02 g/kg p.o. once daily 10 days
Experimental: 50 NIH mice with equal sex distribution were randomly divided into 5 groups. The mice were treated p.o. with different doses of AHT-323 or positive control drug once daily for 10 days. Twenty four hours after the last dosing, mice were sacrificed. The splenocytes were obtained and Con A (Concanavalin) was used to stimulate lymphocytes for transformation. ^3H-TdR adulteration method was used and the result was shown in table 20.

[2] = test system: hemolysin antibody formation; assay: Hemolysin antibody formation in SRBC-immunized normal mice; assay type: in vivo, mice (NIH, ICR, KM); conditions: dosing day 0˜7; for Hymolysin Antibody / inhibition at 20 mg/kg: 0.02 g/kg
Experimental: Totals of 150 mice (50 NIH mice, 50 ICR mice and 50 KM mice) weighing 18-22 g with equal sex distribution were divided into 10 groups, each of which was immunized with 0.2 ml 5% sheep red blood cells (SRBC) i.p. once. AHT-323 was given from d0 to d6. Seven days after immunization, mice were sacrificed and blood was taken from the eyeball. Assay for hemolysin antibody formation was performed and its inhibition rate was evaluated.

NK cells = NK cells activity of mouse splenocytes (colorimetry); assay type: in vivo, ICR mice; conditions: 0.02 g/kg once daily ten days
Experimental: (§1) Totals of 50 ICR mice weighing 18˜22 g with equal sex distribution were randomly divided into five groups. The mice were administrated orally with different doses of AHT-323 or positive control drug respectively, once daily for consecutive ten days. 24 hours after the last dosing, the mice were sacrificed and splenocyte suspension was prepared for measurement of CD4 and CD8 content and NK cells activity.

CD4 and CD8 = CD4 and CD8 content of mouse splenocytes (biotin-labeled ELISA); assay type: in vivo, ICR mice; conditions: 0.02 g/kg once daily ten days
Experimental: as §1

IL-1 = IL-1 activity in peritoneal macrophages after oral dosing (radio-ELISA); assay type: in vivo, NIH mice; conditions: 0.02 g/kg p.o. once daily 10 days
Experimental: (§2) Totals of 50 NIH mice weighing 18-22g with equal sex distribution were divided into 5 groups and administered p.o. with different doses of AHT-323 or cyclophosphamide once daily for 10 days. 24h after the last dosing, mice were sacrificed and peritoneal macrophage and spleen cells suspension were prepared to measure IL-1 and IL-6 activity, respectively.
Method of testing IL-1: IL-1 activity in peritoneal macrophages was measured with radio-ELISA and the result was shown in Table 18.

[3] = test system: plaque forming cells (PFC) and serum IgM of AA mice; assay: Humoral immunity of AA mice (PFC, IgM); assay type: in vivo, NIH mice; conditions: 0.020 g/kg
Experimental: An experimental model of adjuvant arthritis was established in NIH mice weighing 20±2 g by intradermal injection of 0.05 ml Freund's Complete Adjuvant (FCA) to the planter of hind paw. Three weeks later, the mice were treated with different dose of AHT-323 for 5 days. At the same time, they were sensitized with 0.5 ml 10% SRBC i.p. The mice were sacrificed 5 days later. The spleen cells were prepared and the plaque forming cells (PFC) were measured, the serum was prepared and IgM was determined.

IL-2 = IL-2 activity after oral dosing (IL-2 dependent CTLL cells); assay type: in vivo, ICR mice; conditions: 0.02 g/kg once daily 10 days
Experimental: (§3) Total of 50 ICR mice weighing 18˜22 g with equal sex were divided into 5 groups. The mice were administrated orally with different doses of AHT-323 or control (0.5% tragacanth) once daily for 10 days. 24 hours after the last dosing, the peritoneal macrophage suspensions were prepared to measure TNFα content and IL-2 activity.
The IL-2 activity of macrophage was measured with IL-2 dependent CTLL cells by ELISA.

IL-6 = IL-6 activity in splenocytes after oral dosing (ELISA); assay type: in vivo, NIH mice; conditions: 0.02 g/kg p.o. once daily 10 days
Experimental: as §2

TNFα = TNFα content of peritoneal macrophage suspension after oral dosing (ELISA); assay type: in vivo, ICR mice; conditions: 0.02 g/kg once daily 10 days
Experimental: as §3
An ELISA assay was performed using anti-TNFα monoclonal antibody. The TNFα concentration was calculated based on the OD value at 450 nm.

[4] = test system: DTH of mice induced by DNFB; assay: Delayed type hypersensitivity of mouse ear induced by DNFB; assay type: in vivo, NIH mice
Experimental: Totals of 50 NIH mice with equal sex were randomly divided into 5 groups. Each mouse was sensitized with 0.025 ml DNBF (1%) at day 0. Five days later […], 0.01 ml DNFB was pasted as aggression on the right ear. The mice were sacrificed 24 hours later and the weight of left and right ears were measured, the difference of which was used to evaluate reaction intensity of the delayed type hypersensitivity (DTH) of the mice.
In this experiment, AHT-323 was given for consecutive six days (0˜5 days) from the day when the mice were first sensitized with DNFB.
Totals of 60 NIH mice were used. AHT-323 treatments were given at different intervals as the following: from d-2 (2 days before first sensitizing) to Day 0 (first sensitization day), from Day-2 to Day 2 (2 days after first sensitizing), from Day-2 to Day5, and from Day 0 to Day 4, respectively. The swelling rate of mouse ear was determined.
Another 50 NIH mice were used to compare AHT-323 with cyclophosphamide or cytoxan (Cy) on the effects on DTH of mice. The mice were treated with either AHT-323 or Cy alone or both at different intervals.

[5] = test system: writhing reaction of mice; assay: Writhing reaction induced by HAC; assay type: in vivo, Kunming mice; conditions: 0.01 g/kg once daily 3 days; first 20 minutes
Experimental: A total of 50 Kunming mice weighing 18-22 g with equal sex distribution were randomly divided into 5 groups. The mice were treated p.o. with different doses of AHT-323, tragacanth, or Morphine hydrochloride once daily for 3 days. One hour later, each mouse was treated with 0.2 ml saline containing 0.7% HAC, i.p. The time to first writhing and the number of writhing during the first 20 minutes were evaluated.

[6] = Mus musculus, 0 h, read-out: Inhibition rate (%)
[7] = Table 11, 0.1×3 g/kg, dosing day 0, 2, 4 each

O=P1(N(CCCl)CCCl)NCCCO1 (stereo not drawn) [Cy, cyclophosphamide]
Cpm [1]: 9922 ± 1145 Cpm | Stimulate Index [1]: 13.06 ± 2.28 | Hymolysin Antibody ([2]; ICR mice): 28 ± 7 | Hymolysin Antibody ([2]; KM mice): 46 ± 18 | inhibition at 20 mg/kg ([2]; Mus musculus, 0 h, ICR mice, read-out: Inhibition Rate (%)): 77.4% | inhibition at 20 mg/kg ([2]; Mus musculus, 0 h, KM mice, read-out: Inhibition Rate (%)): 81.1% | inhibition at 250 mg/kg ([2]; Mus musculus, 0 h, NIH mice, 0.25 g/kg, read-out: Inhibition Rate (%)): 75.4% | Hemolysin Antibody (HC50) ([2]; NIH mice, 0.25 g/kg): 33 ± 8 | NK Activity (NK cells): 23.10 ± 3.66 | CD4 (%) (CD4 and CD8): 11.50 ± 2.50 % | CD4/CD8 (CD4 and CD8): 2.91 ± 0.53 | CD8 (%) (CD4 and CD8): 4.10 ± 1.20 % | IL-1 (IL-1): 44.5 ± 7.7 ng/mL | IgM (Log2) [3]: 6.950 ± 0.597 Log2 | PFC (OD415) [3]: 0.835 ± 0.015 OD415 | IL-2 (IL-2): 10.1 ± 3.0 IU/ml | IL-6 (IL-6): 49.6 ± 6.7 IU/ml | TNFα (TNFα): 42.2 ± 9.6 pg/mL | inhibition at 20 mg/kg [4, 6]: 64.9% | inhibition at 25 mg/kg [4, 6]: 29% | inhibition at 250 mg/kg ([4]; Mus musculus, read-out: Inhibition rate (%)): -10.6% | % of ear Swelling ([4]; Table 9, 0.020 g/kg, dosing day 0˜5): 5.4 ± 2.6% | % of ear Swelling ([4]; Table 10, 0.025 g/kg, dosing day 0˜5): 32.8 ± 7.9% | % of ear Swelling [4, 7]: 24.10 ± 7.28% | Inhibition rate (%) [4, 7]: 39.8% | % of ear Swelling ([4]; Table 11, 0.25 g/kg, dosing day −3): 44.3 ± 7.9%

CN1CC[C@]23c4c5ccc(O)c4O[C@H]2[C@@H](O)C=C[C@H]3[C@H]1C5.Cl [Morphine, Morphine hydrochloride]
Torsion number [5]: 0.0 ± 0.0
